Assay results reported in US20110301079A1, “NEUROMEDIN U RECEPTOR AGONISTS AND USES THEREOF” (Instituto di Ricerche di Biologia Molecolare P. Angeletti …, priority 2007, published 2011).
pEC50: −log10 of the molar value. Residues, ends and D or L forms follow the SMILES beside them. Groups on a side chain read outwards from the residue. No end group written: not given here. *: point of attachment. Succinimide(1-Et,3-yl) = CCN1C(=O)CC(*)C1=O

Legend:
human NMUR1 = target: T1, human NMUR1 (Homo sapiens, UniProt Q9HB89); test: FLIPR calcium mobilization assay, human NMUR1-expressing cell line; type: cell-based; details: for pEC50: human NMUR1, FLIPR
T1 construct: expressed in transfected cells; host or cells: FLP-In CHO cells and HEK-293 FLP-In cells (pcDNA5)
T1 sequence (Q9HB89 1-426): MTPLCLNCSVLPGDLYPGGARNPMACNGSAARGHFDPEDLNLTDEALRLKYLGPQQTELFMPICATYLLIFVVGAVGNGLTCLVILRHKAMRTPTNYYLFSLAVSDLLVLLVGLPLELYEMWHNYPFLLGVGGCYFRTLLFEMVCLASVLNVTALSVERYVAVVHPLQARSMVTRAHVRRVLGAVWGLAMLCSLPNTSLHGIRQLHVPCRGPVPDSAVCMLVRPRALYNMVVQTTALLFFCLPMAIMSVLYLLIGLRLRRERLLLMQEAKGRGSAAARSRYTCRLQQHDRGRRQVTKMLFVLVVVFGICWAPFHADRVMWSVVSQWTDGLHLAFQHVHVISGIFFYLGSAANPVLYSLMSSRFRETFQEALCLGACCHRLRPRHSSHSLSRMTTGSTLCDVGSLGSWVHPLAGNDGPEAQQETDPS
Source text: (§1) Human, mouse or rat cDNAs encoding NMUR1 or NMUR2 (as described in Howard et al. Nature 406: 70-74 (2000) were subcloned in pcDNA5 (Invitrogen) and transfected into FLP-In CHO cells and HEK-293 FLP-In cells purchased from Invitrogen (Carlsbad, Calif.) using lipofectamine (Invitrogen). The Flp-In system allows integration and expression of a particular gene of interest at a specific genomic location utilizing the Flp recombinase from yeast. The transfected cells were selected by growth in medium containing 200 μg/mL hygromycin (Invitrogen). Populations were frozen at early passage numbers, and these stocks were used for further studies. Stable clones that expressed the mRNAs were identified functionally by FLIPR as well as by RT-PCR. […] Two different rodent NMUR1 cell lines were thus generated: one with the codon as predicted from the genomic databases and another cell line with an engineered methionine (ATG) as the start codon. The dog NMU receptors were also cloned from intestine RNA (NMUR1) and brain (NMUR2) and stable cell lines were generated as used for the human and rodent cell lines. […] To ensure high levels of expression in a heterologous system, a dog NMUR1 cell line was generated that contains an ATG as the start codon. Additionally, stable cell lines expressing the human receptors were generated in HEK-293/aeq 17 cells which stably express the aequorin gene under the CMV promoter. The human NMUR2 cDNA was cloned into pcDNA3.1 and human NMUR1 was subcloned into pIRES-puro (Clontech, Mountain View, Calif.), after transfection cells were selected in media containing G418 and either hygromycin (NMUR2) or puromycin (NMUR1).
(§2) The NMU receptors signal primarily through Gαq/11 proteins; therefore calcium mobilization assays can be utilized for functional activity.
(§3) Stable cell lines expressing human and or rodent NMUR1 or human NMUR2 receptors are plated at a density of 12,000 cells per well overnight on poly-lysine coated 384-well black-walled plates. The following day, the media is removed from the plates and the cells were subsequently loaded with Fluo-3 (Molecular Probes), a calcium sensitive dye, diluted in FLIPR buffer (1× Hank's buffered saline containing 20 mM HEPES, 0.1% BSA, 2.5 mM probenecid (Sigma) and 1.6 mM TR40). All reagents are from Invitrogen unless otherwise noted. Peptide stocks are resuspended in DMSO at a stock concentration of 2 mM and diluted in FLIPR buffer on the day of the experiment to a 4 μM working stock solution.
(§4) After a 90 minute incubation at room-temperature, cell plates are loaded onto a FLIPR (Molecular Devices) to monitor cellular fluorescence (excitation=488 nm; emission=540 nm) before and after compound/peptide addition. Eight to twelve point dose responses are tested on NMUR-expressing cell lines using FLIPR with 1 μM peptide as the highest dose. The response after peptide addition is taken as the maximum fluorescence units minus the fluorescence immediately prior to stimulation for each well. EC50 values are calculated using GraphPad Prism (San Diego, Calif.) software.
(§5) Percent activity refers to the maximum response at 1 μM compared to the human NMU-25 response at the same concentration.

mouse NMUR2 = target: T2, mouse NMUR2 (Mus musculus, UniProt Q8BZ39); test: FLIPR calcium mobilization assay, mouse NMUR2 cell line; type: cell-based; details: for pEC50: mouse NMUR2, FLIPR
T2 construct: expressed in transfected cells; host or cells: FLP-In CHO cells and HEK-293 FLP-In cells (pcDNA5)
T2 sequence (Q8BZ39 whole entry): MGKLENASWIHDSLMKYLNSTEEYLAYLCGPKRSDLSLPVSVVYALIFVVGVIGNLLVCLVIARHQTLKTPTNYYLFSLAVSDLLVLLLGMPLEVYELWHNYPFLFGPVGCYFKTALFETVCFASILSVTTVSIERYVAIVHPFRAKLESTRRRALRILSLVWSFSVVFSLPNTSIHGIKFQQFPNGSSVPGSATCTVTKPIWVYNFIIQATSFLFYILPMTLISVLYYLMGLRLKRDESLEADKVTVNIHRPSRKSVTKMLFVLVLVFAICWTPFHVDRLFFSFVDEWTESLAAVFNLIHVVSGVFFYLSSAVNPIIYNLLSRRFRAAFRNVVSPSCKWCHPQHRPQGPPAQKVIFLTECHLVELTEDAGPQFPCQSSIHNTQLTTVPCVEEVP
Source text: as §1, §2, §3, §4, §5

dog NMUR1-ATG = test: FLIPR calcium mobilization assay, dog NMUR1-ATG cell line; type: cell-based; details: for pEC50: FLIPR
Source text: as §1, §2, §3, §4, §5

mouse NMUR1-ATG = target: T3, mouse NMUR1-ATG (Mus musculus, UniProt O55040); test: FLIPR calcium mobilization assay, mouse NMUR1-ATG cell line; type: cell-based; details: for pEC50: FLIPR
T3 construct: expressed in transfected cells; host or cells: FLP-In CHO cells and HEK-293 FLP-In cells (pcDNA5)
T3 sequence (O55040 1-428): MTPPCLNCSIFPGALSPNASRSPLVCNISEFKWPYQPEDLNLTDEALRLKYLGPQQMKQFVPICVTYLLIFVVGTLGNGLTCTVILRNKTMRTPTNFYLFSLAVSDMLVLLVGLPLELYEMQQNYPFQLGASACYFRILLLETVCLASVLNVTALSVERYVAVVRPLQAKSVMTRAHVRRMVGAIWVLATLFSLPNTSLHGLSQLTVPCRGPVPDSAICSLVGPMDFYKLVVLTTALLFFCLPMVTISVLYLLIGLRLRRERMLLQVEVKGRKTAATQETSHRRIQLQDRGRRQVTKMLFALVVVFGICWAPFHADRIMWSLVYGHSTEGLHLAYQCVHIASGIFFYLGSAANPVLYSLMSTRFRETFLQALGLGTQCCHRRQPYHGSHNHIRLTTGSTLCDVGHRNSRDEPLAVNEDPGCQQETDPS
Source text: as §1, §2, §3, §4, §5

human NMUR2 = target: T4, human NMUR2 (Homo sapiens, UniProt Q9GZQ4); test: FLIPR calcium mobilization assay, human NMUR2-expressing cell line; type: cell-based; details: for pEC50: human NMUR2, FLIPR
T4 construct: expressed in transfected cells; host or cells: FLP-In CHO cells and HEK-293 FLP-In cells (pcDNA5)
T4 sequence (Q9GZQ4 whole entry): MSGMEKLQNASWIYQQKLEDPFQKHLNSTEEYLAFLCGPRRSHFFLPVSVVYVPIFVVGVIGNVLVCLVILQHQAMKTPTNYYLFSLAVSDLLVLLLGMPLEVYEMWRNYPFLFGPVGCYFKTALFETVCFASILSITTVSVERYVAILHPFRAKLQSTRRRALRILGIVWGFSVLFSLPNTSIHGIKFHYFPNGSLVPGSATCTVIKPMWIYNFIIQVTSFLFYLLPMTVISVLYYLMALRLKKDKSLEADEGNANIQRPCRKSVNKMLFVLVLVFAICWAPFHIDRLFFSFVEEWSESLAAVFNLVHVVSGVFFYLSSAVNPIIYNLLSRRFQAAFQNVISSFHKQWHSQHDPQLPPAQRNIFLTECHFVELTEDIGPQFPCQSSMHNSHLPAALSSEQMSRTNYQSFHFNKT
Source text: as §1, §2, §3, §4, §5

dog NMUR2 = target: T5, dog NMUR2 (Canis lupus familiaris, UniProt A0A8I3MN59); test: FLIPR calcium mobilization assay, dog NMUR2 cell line; type: cell-based; details: for pEC50: dog NMUR2, FLIPR
T5 construct: expressed in transfected cells
T5 sequence (A0A8I3MN59 1-378): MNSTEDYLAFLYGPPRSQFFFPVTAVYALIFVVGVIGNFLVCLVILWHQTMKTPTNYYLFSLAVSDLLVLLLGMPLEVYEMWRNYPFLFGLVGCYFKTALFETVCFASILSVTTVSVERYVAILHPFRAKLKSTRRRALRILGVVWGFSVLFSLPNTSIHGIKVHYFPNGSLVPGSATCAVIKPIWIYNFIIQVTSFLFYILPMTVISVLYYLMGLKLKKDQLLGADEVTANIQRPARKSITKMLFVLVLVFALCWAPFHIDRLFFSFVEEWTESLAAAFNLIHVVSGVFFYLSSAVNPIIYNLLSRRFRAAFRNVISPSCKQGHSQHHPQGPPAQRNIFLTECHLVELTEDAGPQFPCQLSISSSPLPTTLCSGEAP
Source text: as §1, §2, §3, §4, §5

[1] = test system: wild-type, Nmur1 knockout, Nmur2 knockout and Nmur1/Nmur2 double knockout mice; test: Acute feeding study in wild-type and Nmur knockout mice; type: in vivo
Protocol: (§6) Ad libitum fed male diet-induced obese mice obtained from Taconic Farms were weighed and dosed either i.p. or s.c. with NMS or NMU at about 30 minutes prior to the onset of the dark phase of the light cycle and provided with a pre-weighed aliquot of high fat diet (D12492: 60% kcal from fat: Research Diets, Inc.), which was then weighed two and 18 hours after the onset of the initial dark phase. Mice were weighed at the 18 hour (overnight) time point.
NMUR1 knockout (Nmur1−/−) mice were generated using standard homologous recombination techniques. Nmur1 mice were subsequently transferred to Taconic Farms where they were either maintained on a 75% C57BL/6×25% 129S6/SvEv mixed genetic background or backcrossed 6 generations to C57BL/6. NMUR2 knockout (Nmur2−/−) mice were licensed from Deltagen Inc., San Mateo, Calif. and subsequently transferred to Taconic Farms were they were either maintained on a 75% C57BL/6×25% 129/OlaHsd mixed genetic background or backcrossed for 7 generations to C57BL/6. NMUR1 and NMUR2 double knockout (Nmur1&2−/−) mice were generated by crossing N6 Nmur1−/− mice to N7 Nmur2−/− mice. Mice were individually housed in Tecniplast cages in a conventional SPF facility. Mice were initially maintained on a regular chow diet and then early in their life were switched to a high fat diet (D12492) with ad libitum access to water in a 12-h light/12-h dark cycle.
The anorectic effects of NMS1 were mediated by both the NMUR1 and NMUR2 receptors. […] Effects on food intake (FIG. 9A) and body weight (FIG. 9B) are shown.

mice = test: Acute subcutaneous administration of NMS analogs, daily food intake and body weight; type: in vivo; details: for overnight food intake: FIG. 6A; for duration of significant reduction of food intake: daily food intake over a four-day period
Protocol: as §6
The efficacy of various PEGylated NMS analogs were evaluated using the aforementioned assays. The PEGylated NMS analogs evaluated were NMS1 and NMS4 (See Table 1).
NMS1, NMS3, and NMS4 were administered subcutaneously and daily food intake was measured over a four-day period.

[2] = test system: male diet-induced obese mice; test: Acute feeding study with NMU and NMS; type: in vivo; details: acute peripheral administration (i.p. or s.c.), FIG. 1A
Protocol: as §6

[3] = maximum response at 1 μM compared to the human NMU-25 response at the same concentration
[4] = acute subcutaneous administration
[5] = acute subcutaneous administration, FIG. 6B

| Molecule | pEC50 (human NMUR1) | pEC50 (mouse NMUR2) | pEC50 (dog NMUR1-ATG) | pEC50 (mouse NMUR1-ATG) | pEC50 (human NMUR2) | pEC50 (dog NMUR2) | overnight food intake (mice; [4]) | body weight (mice; [5]) | duration of significant reduction of food intake (mice; [4]) | further results |
| --- | --- | --- | --- | --- | --- | --- | --- | --- | --- | --- |
| CC[C@H](C)[C@H](NC(=O)[C@H](CSC1CC(=O)N(CC)C1=O)NC(C)=O)C(=O)N[C@@H](CC(C)C)C(=O)N[C@@H](CCC(N)=O)C(=O)N[C@@H](CCCNC(=N)N)C(=O)NCC(=O)N[C@@H](CO)C(=O)NCC(=O)N[C@H](C(=O)N[C@@H](C)C(=O)N[C@@H](C)C(=O)N[C@H](C(=O)N[C@@H](CC(=O)O)C(=O)N[C@@H](Cc1ccccc1)C(=O)N[C@H](C(=O)N[C@@H](CCCCN)C(=O)N[C@@H](CCCCN)C(=O)N[C@@H](CC(=O)O)C(=O)N[C@@H](Cc1c[nH]cn1)C(=O)N[C@H](C(=O)N[C@@H](C)C(=O)N[C@H](C(=O)N[C@@H](Cc1c[nH]c2ccccc12)C(=O)NCC(=O)N[C@@H](CCCNC(=N)N)C(=O)N1CCC[C@H]1C(=O)N[C@@H](Cc1ccccc1)C(=O)N[C@@H](Cc1ccccc1)C(=O)N[C@@H](CC(C)C)C(=O)N[C@@H](Cc1ccccc1)C(=O)N[C@@H](CCCNC(=N)N)C(=O)N1CCC[C@H]1C(=O)N[C@@H](CCCNC(=N)N)C(=O)N[C@@H](CC(N)=O)C(N)=O)[C@@H](C)O)[C@@H](C)O)[C@@H](C)O)C(C)C)[C@@H](C)O (stereo partly shown) [NMS3] (Ac-C(Succinimide(1-Et,3-yl))ILQRGSGTAAVDFTKKDHTATWGRPFFLFRPRN-NH2) | 7.94 | 7.92 | 7.94 | 8.06 | 7.74 | 8.66 | – | – | – | % Activity (human NMUR1; human NMUR1, maximum response at 1 μM compared to the human NMU-25 response at the same concentration): 97%; % Activity (mouse NMUR2; mouse NMUR2, maximum response at 1 μM compared to the human NMU-25 response at the same concentration): 108%; % Activity (dog NMUR1-ATG; [3]): 101%; % Activity (mouse NMUR1-ATG; [3]): 98%; % Activity (human NMUR2; human NMUR2, maximum response at 1 μM compared to the human NMU-25 response at the same concentration): 105%; % Activity (dog NMUR2; dog NMUR2, maximum response at 1 μM compared to the human NMU-25 response at the same concentration): 107% |
| Ac-C2ILQRGSGTAAVDFTKKDHTATWGRPFFLFRPRN-CONH2 (Ac-C([maleimide-(PEG)2 40 kDa])ILQRGSGTAAVDFTKKDHTATWGRPFFLFRPRN-NH2) [NMS1, C2 = Cys(PEG)240 kDa, cysteine PEGylated via the side-chain thiol with a branched PEG] | 6.85 | 7.54 | 7.73 | 6.23 | 6.40 | 7.65 | significantly reduced | Significant reductions | three days post-dose | effects on food intake and body weight ([1]; Nmur2 knockout animals, FIGS. 9A and 9B): only overnight effects; food intake ([1]; acute administration, Nmur1/Nmur2 double knockout animals, FIG. 8A): no effect; body weight ([1]; acute administration, Nmur1/Nmur2 double knockout animals, FIG. 8B): no effect; anorectic efficacy ([1]; acute administration, wild-type animals): highly efficacious; body weight (mice; NMS1 compared to NMU9, FIG. 7B): Significant reductions; food intake (mice; dose response, NMS1 versus NMU9, FIG. 7A): reduced food intake for at least three days post-dose in a dose-dependent manner |
| Ac-C4ILQRGSGTAAVDFTKKDHTATWGRPFFLFRPRN-CONH2 (Ac-C([maleimide-PEG 40 kDa])ILQRGSGTAAVDFTKKDHTATWGRPFFLFRPRN-NH2) [NMS4, C4 = Cys(PEG)40 kDa, cysteine PEGylated via the side-chain thiol with a linear PEG] | 7.13 | 7.71 | 7.88 | 7.18 | 6.99 | 8.51 | significantly reduced | Significant reductions | two days post-dose | – |
| NMU: Neuromedin U; full length 25-mer (NMU-25) in humans (FRVDEEFQSPFASQSRGYFLFRPRN; ends and bridges not checked; UniProt P48645 142-166, looked up) | – | – | – | – | – | – | – | – | – | food intake [2]: dose-dependently reduced |
